Data set [1] can be described thus: Human liver microsome stability assay. The class given is in vitro ADME. The settings on record: both sexes.
Data set [2] can be described thus: Rat liver microsome stability assay. The format is in vitro ADME. As to conditions: rat liver microsomes (male Sprague-Dawley), 0.5 μM test compound, pH 7.4, 37° C.; for half-life at 0.5 μM: 0.25 mg/mL microsomal protein, read-out: Stability in rat liver microsomes (t1/2 in minutes).
Data set [3] is described as follows: Mouse liver microsome stability assay. The class given is in vitro ADME.
Data set [4] concerns breast cancer cell line MX-1. Description: MX-1 cell line proliferation assay. The class given is cell-based, human. As to conditions: Homo sapiens, MX1, 72 h; MX-1 cells, 3-day proliferation, Cell Titer Glo; read-out: Cellular proliferation: EC50.
For data set [5], the target named is human BRD4 first bromodomain (BDI_K57-E168) (Homo sapiens (Human), UniProt O60885). Briefly: TR-FRET bromodomain binding assay, BRD4 first bromodomain.
Data set [6] addresses human BRD4 second bromodomain (BDII_E352-M457) (Homo sapiens (Human), UniProt O60885). Briefly: TR-FRET bromodomain binding assay, BRD4 second bromodomain.
The mark [7] stands for this setting: male, CD1, mouse, microsomes, pH 7.4.

As to `CN(C)c1cccc(Oc2ccc(S(C)(=O)=O)cc2-c2cn(C)c(=O)c3[nH]ccc23)c1` [Example 180, 4-{2-[3-(dimethylamino)phenoxy]-5-(methylsulfonyl)phenyl}-6-methyl-1,6-dihydro-7H-pyrrolo[2,3-c]pyridin-7-one], the half-life at 0.5 μM in data set [1] (human, microsomes, pH 7.4) amounted to 12 min; in data set [2], 7 min; in data set [3] (setting [7]), 5 min. The EC50 in data set [4] amounted to 115 nM.

Take `CCS(=O)(=O)Nc1ccc(Oc2ccc(F)cc2F)c(-c2cn(C)c(=O)c3[nH]ncc23)c1` [Example 320, N-[4-(2,4-difluorophenoxy)-3-(6-methyl-7-oxo-6,7-dihydro-1H-pyrazolo[3,4-c]pyridin-4-yl)phenyl]ethanesulfonamide]: the half-life at 0.5 μM was over 120 min in data set [1] (human, microsomes, pH 7.4); 57 min in data set [2]; 116 min in data set [3] (setting [7]). Further, in data set [4], the EC50 came to 18.7 nM.

As to `CCOC(=O)c1ccc(NC2CCCC2)c(-c2cn(C)c(=O)c3[nH]ccc23)c1` [Example 40, ethyl 4-(cyclopentylamino)-3-(6-methyl-7-oxo-6,7-dihydro-1H-pyrrolo[2,3-c]pyridin-4-yl)benzoate], the half-life at 0.5 μM in data set [1] (human, microsomes, pH 7.4) worked out at 13.1 min; in data set [3] (setting [7]), 6 min. In addition, the “Stability in rat liver microsomes (t1/2 in minutes)” value in data set [2] ([…] microsomal protein) worked out at 1 min. Besides, the EC50 in data set [4] was determined as 167 nM.

As for `COC(=O)Cc1ccc(OCc2ccccc2)c(-c2cn(C)c(=O)c3[nH]ccc23)c1` [Example 45, methyl [4-(benzyloxy)-3-(6-methyl-7-oxo-6,7-dihydro-1H-pyrrolo[2,3-c]pyridin-4-yl)phenyl]acetate], the half-life at 0.5 μM in data set [2] was found to be 2 min; in data set [3] (setting [7]), 3 min. Further, in data set [4], the EC50 was 233 nM.

As for `Cn1cc(-c2ccccc2C(=O)N2CCOCC2)c2cc[nH]c2c1=O` [Example 61, 6-methyl-4-[2-(morpholin-4-ylcarbonyl)phenyl]-1,6-dihydro-7H-pyrrolo[2,3-c]pyridin-7-one], the half-life at 0.5 μM is over 120 min in data set [1] (human, microsomes, pH 7.4); over 120 min in data set [2]; over 120 min in data set [3] (setting [7]). For the same compound, the figures for the Ki in data set [5] and in data set [6] were over 13000 nM and over 22200 nM, respectively.

Consider `Cn1cc(-c2cc(C(=O)N3CCN(C(=O)N4CCCC4)CC3)ccc2Oc2ccc(F)cc2F)c2cc[nH]c2c1=O` [Example 119, 4-[2-(2,4-difluorophenoxy)-5-{[4-(pyrrolidin-1-ylcarbonyl)piperazin-1-yl]carbonyl}phenyl]-6-methyl-1,6-dihydro-7H-pyrrolo[2,3-c]pyridin-7-one], for which the half-life at 0.5 μM in data set [1] (human, microsomes, pH 7.4) came to 14 min; in data set [2], 24 min; in data set [3] (setting [7]), 2 min. In addition, the inhibition constant (Ki) amounted to 44.4 nM in data set [5] and 22.5 nM in data set [6].

On to `CC(C)c1ccc(Oc2ccc(S(C)(=O)=O)cc2-c2cn(C)c(=O)c3[nH]ccc23)cc1` [Example 192, 6-methyl-4-{5-(methylsulfonyl)-2-[4-(propan-2-yl)phenoxy]phenyl}-1,6-dihydro-7H-pyrrolo[2,3-c]pyridin-7-one], for which the half-life at 0.5 μM in data set [1] (human, microsomes, pH 7.4) worked out at 9 min; in data set [2], 5 min; in data set [3] (setting [7]), 3 min. For the same compound, the Ki in data set [5] worked out at 51.3 nM; in data set [6] it was 9.6 nM.

With `Cn1cc(-c2cc(C(=O)NCc3ccc(OC(F)(F)F)cc3)ccc2Oc2ccc(F)cc2F)c2cc[nH]c2c1=O` [Example 126, 4-(2,4-difluorophenoxy)-3-(6-methyl-7-oxo-6,7-dihydro-1H-pyrrolo[2,3-c]pyridin-4-yl)-N-[4-(trifluoromethoxy)benzyl]benzamide], the half-life at 0.5 μM in data set [1] (human, microsomes, pH 7.4) was 100 min; in data set [2], 21 min; in data set [3] (setting [7]) it was 25 min. Besides, the Ki in data set [5] was determined as 2000 nM; in data set [6] it was 768 nM.

In the case of `Cn1cc(-c2cc(S(C)(=O)=O)ccc2OCCN2CCNC2=O)c2cc[nH]c2c1=O` [Example 218, 6-methyl-4-{5-(methylsulfonyl)-2-[2-(2-oxoimidazolidin-1-yl)ethoxy]phenyl}-1,6-dihydro-7H-pyrrolo[2,3-c]pyridin-7-one], the half-life at 0.5 μM in data set [1] (human, microsomes, pH 7.4) is over 120 min; in data set [2], over 120 min; in data set [3] (setting [7]), over 120 min. Further, the Ki in data set [5] was 69.3 nM; in data set [6], 68.9 nM.

On to `Cn1cc(-c2cc(S(C)(=O)=O)ccc2OCCN2CCCC2=O)c2cc[nH]c2c1=O` [Example 232, 6-methyl-4-{5-(methylsulfonyl)-2-[2-(2-oxopyrrolidin-1-yl)ethoxy]phenyl}-1,6-dihydro-7H-pyrrolo[2,3-c]pyridin-7-one], for which the half-life at 0.5 μM in data set [1] (human, microsomes, pH 7.4) was 57 min; in data set [2], over 120 min; in data set [3] (setting [7]), over 120 min. Besides, the Ki in data set [5] is 213 nM; in data set [6] it was 443 nM.

`CN1CCCC1CCOc1ccc(S(C)(=O)=O)cc1-c1cn(C)c(=O)c2[nH]ccc12` (stereo not drawn) [Example 225, 6-methyl-4-{2-[2-(1-methylpyrrolidin-2-yl)ethoxy]-5-(methylsulfonyl)phenyl}-1,6-dihydro-7H-pyrrolo[2,3-c]pyridin-7-one]: the half-life at 0.5 μM in data set [1] (human, microsomes, pH 7.4) was 52 min; in data set [2], 59 min; in data set [3] (setting [7]) it was over 120 min. Besides, the inhibitory constant (Ki) in data set [5] came to 264 nM; in data set [6], 845 nM.

Regarding `Cn1cc(-c2cc(S(C)(=O)=O)ccc2Oc2ccc3cccnc3c2)c2cc[nH]c2c1=O` [Example 188, 6-methyl-4-[5-(methylsulfonyl)-2-(quinolin-7-yloxy)phenyl]-1,6-dihydro-7H-pyrrolo[2,3-c]pyridin-7-one], the half-life at 0.5 μM was 26 min in data set [1] (human, microsomes, pH 7.4); 22 min in data set [2]; 6 min in data set [3] (setting [7]). Further, the inhibition constant (Ki) worked out at 29.4 nM in data set [5] and 18 nM in data set [6].

Consider `Cc1ccc(F)cc1Oc1ccc(S(C)(=O)=O)cc1-c1cn(C)c(=O)c2[nH]ccc12` [Example 187, 4-[2-(5-fluoro-2-methylphenoxy)-5-(methylsulfonyl)phenyl]-6-methyl-1,6-dihydro-7H-pyrrolo[2,3-c]pyridin-7-one], for which the half-life at 0.5 μM in data set [1] (human, microsomes, pH 7.4) is 9 min; in data set [2], 4 min; in data set [3] (setting [7]) it was 5 min. Further, the Ki amounted to 24.8 nM in data set [5] and 8.2 nM in data set [6].

In the case of `Cn1cc(-c2cc(C(=O)NCc3ccc(F)c(F)c3)ccc2Oc2ccc(F)cc2F)c2cc[nH]c2c1=O` [Example 125, N-(3,4-difluorobenzyl)-4-(2,4-difluorophenoxy)-3-(6-methyl-7-oxo-6,7-dihydro-1H-pyrrolo[2,3-c]pyridin-4-yl)benzamide], the half-life at 0.5 μM in data set [1] (human, microsomes, pH 7.4) was determined as 45 min; in data set [2] it was 23 min; in data set [3] (setting [7]) it was 12 min. For the same compound, the Ki in data set [5] came to 215 nM; in data set [6], 274 nM.

On to `Cn1cc(-c2cc(C3=CCNCC3)ccc2OCC2CC2)c2cc[nH]c2c1=O` [Example 340, 4-[2-(cyclopropylmethoxy)-5-(1,2,3,6-tetrahydropyridin-4-yl)phenyl]-6-methyl-1,6-dihydro-7H-pyrrolo[2,3-c]pyridin-7-one], for which the half-life at 0.5 μM in data set [1] (human liver microsomes, 0.5 μM test compound, 0.25 mg/mL microsomal protein, pH 7.4, 37° C., read-out: Stability in human liver microsomes (t1/2 in minutes)) was over 120 min; in data set [2] it was 4 min; in data set [3] (mouse liver microsomes (male CD1), 0.5 μM test compound, 0.25 mg/mL microsomal protein, pH 7.4, 37° C., read-out: Stability in mouse liver microsomes (t1/2 in minutes)), 9 min. In addition, the Ki in data set [5] came to 942 nM; in data set [6], 1250 nM.

On to `Cn1cc(-c2cc(S(C)(=O)=O)ccc2Oc2cccc3ccncc23)c2cc[nH]c2c1=O` [Example 193, 4-[2-(isoquinolin-8-yloxy)-5-(methylsulfonyl)phenyl]-6-methyl-1,6-dihydro-7H-pyrrolo[2,3-c]pyridin-7-one], for which the half-life at 0.5 μM in data set [1] (human, microsomes, pH 7.4) came out at 11 min; in data set [2], 7 min; in data set [3] (setting [7]), 2 min. For the same compound, the values for the Ki in data set [5] and in data set [6] were 70.4 nM and 13.6 nM, respectively.

In the case of `Cn1cc(-c2cc(S(C)(=O)=O)ccc2Oc2cc(F)cc(F)c2)c2cc[nH]c2c1=O` [Example 176, 4-[2-(3,5-difluorophenoxy)-5-(methylsulfonyl)phenyl]-6-methyl-1,6-dihydro-7H-pyrrolo[2,3-c]pyridin-7-one], the half-life at 0.5 μM in data set [1] (human, microsomes, pH 7.4) came to 48 min; in data set [2], 8 min; in data set [3] (setting [7]), 29 min. In addition, the figures for the Ki in data set [5] and in data set [6] were 21.3 nM and 6 nM, respectively.

Turning to `Cn1cc(-c2cc(CN3CCCC3)ccc2OCC2CC2)c2cc[nH]c2c1=O` [Example 314, 4-[2-(cyclopropylmethoxy)-5-(pyrrolidin-1-ylmethyl)phenyl]-6-methyl-1,6-dihydro-7H-pyrrolo[2,3-c]pyridin-7-one], the half-life at 0.5 μM was determined as 81 min in data set [1] (human, microsomes, pH 7.4); 4 min in data set [2]; 6 min in data set [3] (setting [7]). The Ki was found to be 1600 nM in data set [5] and 1290 nM in data set [6].

In the case of `Cn1cc(-c2cc(S(C)(=O)=O)ccc2Oc2cc(F)ccc2F)c2cc[nH]c2c1=O` [Example 173, 4-[2-(2,5-difluorophenoxy)-5-(methylsulfonyl)phenyl]-6-methyl-1,6-dihydro-7H-pyrrolo[2,3-c]pyridin-7-one], the half-life at 0.5 μM in data set [1] (human, microsomes, pH 7.4) was 38 min; in data set [2] it was 5 min; in data set [3] (setting [7]) it was 16 min. Also, the values for the Ki in data set [5] and in data set [6] were 15.7 nM and 6.6 nM, respectively.

Values taken from patent US9296741B2, “Bromodomain inhibitors” (priority 2012, dated 2016).
